Here are results for 1 compound from patent US9221765B2, “Inhibition and dispersion of bacterial biofilms with benzimidazole derivatives” (North Carolina State University, priority 2009, dated 2015).

The subject of assay [1] is vancomycin-resistant Enterococcus faecium (VRE). The experiment in a line: Inhibition of VRE (E. faecium) biofilm formation (crystal violet). The class given is cell-based. On the procedure: (§1) A dose-response study was then initiated in which both the IC50 and EC50 value of each compound towards the bacterial strains were determined (Table 1). Here, IC50 is defined as the concentration of compound that inhibits 50% biofilm development while EC50 is defined as the concentration of compound that disperses 50% of a pre-formed biofilm.
(§2) Procedure to Determine the Inhibitory Effect of Test Compounds on E. faecium, MRSA, S. epidermidis, PAO1 and MDRAB Biofilm Formation:
(§3) Inhibition assays were performed by taking an overnight culture of bacterial strain and subculturing it at an OD600 of 0.01 into the necessary media (brain heart infusion for E. faecium, tryptic soy broth with a 0.5% glucose supplement (TSBG) for MRSA, Luria-Bertani (LB) media for MDRAB, Luria-Bertani media without NaCl (LBNS) for PAO1 and tryptic soy broth with a 0.5% glucose supplement and a 3.0% NaCl supplement (TGN) for S. epidermidis. Stock solutions of predetermined concentrations of the test compound were then made in the necessary media. These stock solutions were aliquoted (100 μL) into the wells of the 96-well PVC microtiter plate. Sample plates were then wrapped in GLAD Press n′ Seal® followed by an incubation under stationary conditions for 24 h at 37° C. After incubation, the media was discarded from the wells and the plates were washed thoroughly with water. Plates were then stained with 100 μL of 0.1% solution of crystal violet (CV) and then incubated at ambient temperature for 30 min. Plates were washed with water again and the remaining stain was solubilized with 200 μL of 95% ethanol. A sample of 125 μL of solubilized CV stain from each well was transferred to the corresponding wells of a polystyrene microtiter dish. Biofilm inhibition was quantitated by measuring the OD540 of each well in which a negative control lane wherein no biofilm was formed served as a background and was subtracted out.
as §3, with “2-(2-amino-1H-benzo[d]imidazol-6-ylcarbamoyl)-3,4,5,6-tetrachlorobenzoic acid hydrochloride” for “test compound”, “media. Samples were then doped with 10.0 μM FeSO4 with samples with no test compound to examine effects of 10.0 μM FeSO4 on biofilm formation.” for “media.”

The next assay deals with MRSA. The experiment in a line: Inhibition of MRSA biofilm formation (crystal violet). The assay is classed as cell-based, Staphylococcus aureus. Particulars: Staphylococcus aureus. On the procedure: as §1, §2, §3
as §3, with “2-(2-amino-1H-benzo[d]imidazol-6-ylcarbamoyl)-3,4,5,6-tetrachlorobenzoic acid hydrochloride” for “test compound”, “media. Samples were then doped with 10.0 μM FeSO4 with samples with no test compound to examine effects of 10.0 μM FeSO4 on biofilm formation.” for “media.”

Assay [2] concerns S. epidermidis. The assay is described as follows: Inhibition of S. epidermidis biofilm formation (crystal violet). Particulars: Staphylococcus epidermidis. The assay is classed as cell-based, Staphylococcus epidermidis. Here is the method:
as §1, §2, §3
as §3, with “2-(2-amino-1H-benzo[d]imidazol-6-ylcarbamoyl)-3,4,5,6-tetrachlorobenzoic acid hydrochloride” for “test compound”, “media. Samples were then doped with 10.0 μM FeSO4 with samples with no test compound to examine effects of 10.0 μM FeSO4 on biofilm formation.” for “media.”

In assay [3] the test system is S. epidermidis. The assay is described as follows: Dispersion of preformed S. epidermidis biofilm. The assay is classed as cell-based, Staphylococcus epidermidis. The conditions noted are these: concentration that disperses 50% of a pre-formed biofilm. On the procedure: as §1
Procedure to Determine the Dispersal Effect of Test Compounds on E. faecium, MRSA and S. epidermidis Preformed Biofilms:
Dispersion assays were performed by taking an overnight culture of bacterial strain and subculturing it at an OD600 of 0.01 into the necessary media (brain heart infusion for E. faecium, tryptic soy broth with a 0.5% glucose supplement (TSBG) for MRSA and tryptic soy broth with a 0.5% glucose supplement and a 3.0% NaCl supplement (TGN) for S. epidermidis. The resulting bacterial suspension was aliquoted (100 μL) into the wells of a 96-well PVC microtiter plate. Plates were then wrapped in GLAD Press n′ Seal® followed by an incubation under stationary conditions at ambient temperature to establish the biofilms. After 24 h, the media was discarded from the wells and the plates were washed thoroughly with water. Stock solutions of predetermined concentrations of the test compound were then made in the necessary media. These stock solutions were aliquoted (100 μL) into the wells of the 96-well PVC microtiter plate with the established biofilms. Media alone was added to a subset of the wells to serve as a control. Sample Plates were then incubated for 24 h at 37° C. After incubation, the media was discarded from the wells and the plates were washed thoroughly with water. Plates were then stained with 100 μL of 0.1% solution of crystal violet (CV) and then incubated at ambient temperature for 30 min. Plates were washed with water again and the remaining stain was solubilized with 200 μL of 95% ethanol. A sample of 125 μL of solubilized CV stain from each well was transferred to the corresponding wells of a polystyrene microtiter dish. Biofilm dispersion was quantitated by measuring the OD540 of each well in which a negative control lane wherein no biofilm was formed served as a background and was subtracted out.

Assay [4] has as its system E. faecium, MRSA and S. epidermidis. The assay is described as follows: Mitigating effects of iron on biofilm formation inhibition. The class given is cell-based. Particulars: increasing Fe(II) concentration, 10.0 μM FeSO4, hydrochloride. Here is the method: Next the mechanistic basis of how compound 3 was able to inhibit and disperse bacterial biofilms was investigated. Iron levels are known to effect Gram-positive biofilm development (Deighton, M.; Borland, R. Infection and Immunity 1993, 61, 4473-4479) and were deemed a plausible driver of the observed anti-biofilm activity. To examine Fe(II) related antibiofilm behavior, a dose-dependent study was performed in which the ability of 3 to inhibit biofilm development was measured under increasing Fe(II) concentration. […]
Inhibition assays were performed by taking an overnight culture of bacterial strain and subculturing it at an OD600 of 0.01 into the necessary media (brain heart infusion for E. faecium, tryptic soy broth with a 0.5% glucose supplement (TSBG) for MRSA, Luria-Bertani (LB) media for MDRAB, Luria-Bertani media without NaCl (LBNS) for PAO1 and tryptic soy broth with a 0.5% glucose supplement and a 3.0% NaCl supplement (TGN) for S. epidermidis. Stock solutions of predetermined concentrations of the 2-(2-amino-1H-benzo[d]imidazol-6-ylcarbamoyl)-3,4,5,6-tetrachlorobenzoic acid hydrochloride were then made in the necessary media. […] Biofilm inhibition was quantitated by measuring the OD540 of each well in which a negative control lane wherein no biofilm was formed served as a background and was subtracted out.

Structures can show the parent of a compound that is named as a salt.

In general, IC50 refers to the concentration at which inhibition is half-maximal. In general, EC50 refers to the concentration that produces a half-maximal response. A lower EC50 goes with a more potent agent. Take `Nc1nc2ccc(NC(=O)c3c(Cl)c(Cl)c(Cl)c(Cl)c3C(=O)O)cc2[nH]1` [Compound 3, 2-(2-amino-1H-benzo[d]imidazol-6-ylcarbamoyl)-3,4,5,6-tetrachlorobenzoic acid hydrochloride]: the IC50 in assay [1] was found to be 1400 nM; with MRSA, 860 nM; with MRSA (concentration that inhibits 50% biofilm development), 890 ± 10 nM; in the assay with S. epidermidis [2], 570 nM. For the same compound, the EC50 in the assay with S. epidermidis [3] (Staphylococcus epidermidis) was 7250 nM; in the assay with S. epidermidis [3] (hydrochloride), 7300 nM. The “effect of Fe(II) on biofilm inhibitory activity” value is listed as “not affected by increasing Fe(II) concentrations” in assay [4] and “no effect on biofilm inhibitory activity” in assay [4] (listed as 2-(2-amino-1H-benzo[d]imidazol-6-ylcarbamoyl)-3,4,5,6-tetrachlorobenzoic acid hy).
